Results on 21 compounds are retold here after patent US20200121677A1, “SUBSTITUTED 6,7-DIHYDROPYRAZOLO[1,5-a]PYRAZINES AS NEGATIVE ALLOSTERIC MODULATORS OF MGLUR2 RECEPTORS” (Janssen Pharmaceutica NV, priority 2014, published 2020).

The target in one data set is human mGlu2 receptor (Homo sapiens, UniProt Q14416). Description: [35S]GTPγS binding assay, mGluR2 negative allosteric modulation (membranes from CHO cells transfected with human mGlu2 receptor, glutamate ~EC80 60 μM).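 As to all read-outs here: membranes preincubated 30 min at 30 °C with compound plus glutamate, then [35S]GTPγS (0.1 nM) incorporation measured over another 30 min at 30 °C.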 The conditions noted are these: for IC50: GTPγS - hmGluR2 anGT pIC50, membranes with human mGlu2 receptor; for IC50 / GTPγS - hmGluR2 anGT pIC50: glutamate ~EC80 (60 μM), pIC50 = -log IC50 (M); for Emax: read-out: GTPγS - hmGluR2 anGT Emax, relative maximal effect: maximal % inhibition relative to the control glutamate response; for GTPγS - hmGluR2 anGT pIC50: membranes with human mGlu2 receptor; for GTPγS - hmGluR2 anGT Emax: relative maximal effect: maximal % inhibition relative to the control glutamate response.
human mGlu2 receptor, sequence (Q14416 19-872): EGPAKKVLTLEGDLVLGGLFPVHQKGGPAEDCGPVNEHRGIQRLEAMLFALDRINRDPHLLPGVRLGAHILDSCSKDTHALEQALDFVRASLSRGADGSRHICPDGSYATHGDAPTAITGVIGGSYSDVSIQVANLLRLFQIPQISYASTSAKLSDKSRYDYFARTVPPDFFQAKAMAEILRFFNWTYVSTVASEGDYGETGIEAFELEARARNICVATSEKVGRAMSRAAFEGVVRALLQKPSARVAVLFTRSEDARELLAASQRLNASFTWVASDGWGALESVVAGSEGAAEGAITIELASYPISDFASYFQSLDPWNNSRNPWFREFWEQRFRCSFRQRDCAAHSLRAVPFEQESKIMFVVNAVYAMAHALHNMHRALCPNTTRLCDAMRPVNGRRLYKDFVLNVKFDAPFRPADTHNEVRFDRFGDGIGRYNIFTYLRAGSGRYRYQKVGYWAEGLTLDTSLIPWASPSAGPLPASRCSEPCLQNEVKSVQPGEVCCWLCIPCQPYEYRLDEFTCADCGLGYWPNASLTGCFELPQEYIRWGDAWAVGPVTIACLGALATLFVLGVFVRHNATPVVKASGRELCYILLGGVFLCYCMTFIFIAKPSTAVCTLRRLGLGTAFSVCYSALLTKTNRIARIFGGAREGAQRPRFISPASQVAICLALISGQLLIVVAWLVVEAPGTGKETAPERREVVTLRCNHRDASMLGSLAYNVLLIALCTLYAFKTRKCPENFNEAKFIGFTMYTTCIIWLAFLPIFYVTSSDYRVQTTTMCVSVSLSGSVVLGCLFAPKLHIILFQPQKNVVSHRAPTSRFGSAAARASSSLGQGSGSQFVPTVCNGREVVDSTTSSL

A further data set concerns Wiga rats. Description: Induction of mydriasis (pupil diameter, test 1 and test 2). The class given is in vivo, rat. The conditions noted are these: route PO, pupil diameter >25 units, maximum over 1, 2 or 3 h post-administration; for ED50: Rattus norvegicus, read-out: ED50 MYD Test 2 (Induction of mydriasis). How it is done:
3) Induction of Mydriasis
The pupil diameter of Wiga rats was measured with a microscopic micrometer (1 unit=1/24 mm). Criteria for drug-induced effects: pupil diameter >25 units for mydriasis (in controls: 1.9%) 1 h post-administration of the test compound (test 1) or 1, 2 or 3 h post-administration of the test compound (test 2, wherein the maximum pupil diameter over the full 3 h period is reported).

Another data set concerns rats. Description: Reversal of the effect of the mGluR2 PAM JNJ-42153605-induced inhibition of scopolamine-induced hyperlocomotion. It counts as in vivo, rat. The conditions noted are these: rats, route PO, criterion total distance >1500 cm; for ED50: Rattus norvegicus, read-out: ED50 SCOP JNJ-42153605 (Reversal of the effect of JNJ 42153605 on scopolamine-induced hyperlocomotion). The method, then: 2) Reversal of the Effect of the mGluR2 PAM JNJ-42153605-Induced Inhibition of Scopolamine-Induced Hyperlocomotion
Motor activity was measured in microprocessor-based motor activity arenas (closed gray PVC cylinders with a height of 39 cm and a diameter of 31 cm). Each arena was placed on an infrared LED (8×8 LEDs) lit box (white PVC squared box; 40×40 cm^2; height 12.5 cm. An infrared-sensitive tube camera and a white light source were mounted to the ceiling above the observation chamber to track the animal. The total distance traveled (cm) was recorded and analyzed using the Noldus Ethovision XT Video Tracking System (Version 7.0.418; Noldus, Wageningen, The Netherlands). The intensity of the light within the activity cages (measured in the centre at the level of the floor) ranged between 4 and 8 LUX.
The rats were pretreated with test compound or vehicle at 60 min before the start of the activity recordings and placed into individual cages. The rats were challenged with JNJ-42153605 (3-(cyclopropylmethyl)-7-(4-phenylpiperidin-1-yl)-8-(trifluoromethyl)[1,2,4]triazolo[4,3-a]pyridine; WO2010/130424; Cid et al. J. Med. Chem. 2012, 55, 8770-8789) (20 mg/kg, i.v.) 30 min before the start of the activity recording combined with scopolamine (0.16 mg/kg, i.v.) just before the start of the activity measurements. Immediately after the injection of scopolamine, the rats were placed into the activity monitors and total distance traveled over the first 30 min was measured.
For reversal of the inhibitory effect of JNJ-42153605 on the scopolamine-induced hyperlocomotion, the following all-or-none criteria were adopted: (1) reversal: total distance >1500 cm.

The subject of the next data set is Male Wiga Wistar rats. Description: Reversal of LY-404039-induced decrease of palpebral opening in apomorphine-challenged rats. It counts as in vivo, rat. Conditions: Rattus norvegicus; rats, route PO (route cell empty for Co. 88 and 84); read-out: ED50 APO LY-404039 (Reversal of LY-404039-induced decrease of palpebral opening in apomorphine challenged rats). The method, then: 1) Reversal of LY-404039-Induced Decrease of Palpebral Opening in Apomorphine-Challenged Rats.
Male Wiga Wistar rats (Crl:WI; Charles River Germany; 220±40 g) were housed under standard laboratory conditions (21±2° C.; 50-65% relative humidity; light-dark cycle set at 12 h; lights on at 6.00 h) and fasted overnight prior to the start of the experiments (tap water remained available ad libitum). During the test period, they were housed in individual cages. Palpebral opening was scored every 5 min over the first hour after injection of apomorphine (1.0 mg/kg, i.v.) in animals either pretreated or not pretreated with LY-404039 (2.5 mg/kg, s.c.) at 1 h prior to the apomorphine injection. The animals were also pretreated with test compound or solvent at a predefined interval before apomorphine challenge. The score system was: (5) exophthalmos, (4) wide open, (3) open for three-quarters, (2) half open, (1) open for one-quarter, (0) closed. The scores for palpebral opening were cumulated over the 60-min observation period.

`Cc1ccncc1NC(=O)c1cnn2c1C(=O)N(c1ccc(Cl)c(Cl)c1)C[C@@H]2C` [compound 30] returned a melting point of 225 °C. Besides, at human mGlu2 receptor, the IC50 is 1.1e-09 M and the Emax stood at 111%. Besides, in the data set on Wiga rats, the median effective dose (ED50) was 3.1 mg/kg. Moreover, the ED50 in the data set on rats worked out at 0.51 mg/kg.
Regarding `Cc1cc(N2C[C@H](C)n3ncc(C(=O)Nc4ccccn4)c3C2=O)ccc1C(F)(F)F` [compound 35], the melting point came out at 227.3 °C. Besides, at human mGlu2 receptor, the IC50 was 3.98e-09 M and the maximal effect (Emax) was determined as 114%. Also, the 50% effective dose (ED50) in the data set with rats was greater than 2.5 mg/kg. The ED50 with Male Wiga Wistar rats was greater than 10 mg/kg.
Taken in the same sequence, the figures for `Cc1ccncc1NC(=O)c1cnn2c1C(=O)N(c1ccc(C(F)(F)F)cc1)C[C@@H]2C` [compound 14] were 249.5 °C, 2.45e-09 M, 109%, 0.13 mg/kg and 0.13 mg/kg.
Taken in the same sequence, the figures for `C[C@H]1CN(c2ccc(C(F)(F)F)cc2)C(=O)c2c(C(=O)Nc3cnccn3)cnn21` [compound 100] were 225 °C, 2.95e-09 M, 119%, 0.2 mg/kg and 0.32 mg/kg.
`C[C@H]1CN(c2ccc(Cl)c(Cl)c2)C(=O)c2c(C(=O)Nc3cccnc3)cnn21` [compound 26]: on human mGlu2 receptor, the “GTPγS - hmGluR2 anGT pIC50” value was found to be 9.08 and the “GTPγS - hmGluR2 anGT Emax” value was found to be 107%. Besides, the “ED50 MYD Test 2 (Induction of mydriasis)” value in the data set with Wiga rats amounted to 5 mg/kg. Besides, in the data set with rats, the “ED50 SCOP JNJ-42153605 (Reversal of the effect of JNJ 42153605 on scopolamine-induced hyperlocomotion)” value is listed as 0.32 mg/kg.
The compound `C[C@H]1CN(c2ccc(C(F)(F)F)cc2)C(=O)c2c(C(=O)Nc3cncc(F)c3)cnn21` [compound 13] showed a melting point of 196.7 °C. At human mGlu2 receptor, the IC50 was 2.24e-09 M and the Emax was found to be 110%. In addition, the ED50 with rats is 0.32 mg/kg. In the data set with Male Wiga Wistar rats, the ED50 was 0.32 mg/kg.
`C[C@H]1CN(c2ccc(Cl)cc2)C(=O)c2c(C(=O)Nc3cnccn3)cnn21` [compound 162] registered a melting point of 250.1 °C. Moreover, on human mGlu2 receptor, the IC50 is 6.76e-09 M and the Emax came out at 109%. The ED50 with Wiga rats is greater than 10 mg/kg. Moreover, the ED50 in the data set with rats was 0.13 mg/kg.
With `COc1cc(N2C[C@H](C)n3ncc(C(=O)Nc4cncc(F)c4)c3C2=O)ccc1C(F)(F)F` [compound 117], the melting point worked out at 259 °C. Further, on human mGlu2 receptor, the IC50 was 3.72e-09 M and the Emax came to 105%. The ED50 in the data set with Wiga rats is greater than 10 mg/kg. Further, the ED50 with rats worked out at 0.51 mg/kg.
`Cc1cncc(NC(=O)c2cnn3c2C(=O)N(c2ccc(C(F)(F)F)c(C)c2)C[C@@H]3C)c1` [compound 37] gave a melting point of 202.8 °C. Also, at human mGlu2 receptor, the IC50 is 7.24e-10 M and the Emax came to 108%. Also, the ED50 in the data set with rats is greater than 0.63 mg/kg. In the data set with Male Wiga Wistar rats, the ED50 was greater than 0.63 mg/kg.
Regarding `Cc1cc(NC(=O)c2cnn3c2C(=O)N(c2ccc(C(F)(F)F)c(Cl)c2)C[C@@H]3C)cc(C)n1` [compound 107], at human mGlu2 receptor, the IC50 was 1.48e-09 M and the Emax was 107%. The ED50 in the data set on rats was greater than 0.63 mg/kg. Besides, in the data set with Male Wiga Wistar rats, the ED50 is greater than 0.63 mg/kg.
In the case of `C[C@H]1CN(c2ccc(Cl)c(Cl)c2)C(=O)c2c(C(=O)Nc3cnccn3)cnn21` [compound 116], the melting point stood at 213.63 °C. Also, at human mGlu2 receptor, the IC50 is 1.35e-09 M and the Emax was determined as 109%. Also, in the data set on Wiga rats, the ED50 turned out to be 5 mg/kg. Also, the ED50 in the data set with rats worked out at 0.05 mg/kg.
In turn, `C[C@H]1CN(c2ccc(C(F)(F)F)c(F)c2)C(=O)c2c(C(=O)Nc3ccccn3)cnn21` [compound 20] yielded a melting point of 199.2 °C. At human mGlu2 receptor, the IC50 is 1.07e-08 M and the Emax worked out at 113%. In addition, in the data set with rats, the ED50 is greater than 2.5 mg/kg. The ED50 in the data set with Male Wiga Wistar rats was greater than 2.5 mg/kg.
In turn, `COc1cncc(NC(=O)c2cnn3c2C(=O)N(c2ccc(C(F)(F)F)cc2)C[C@@H]3C)c1` [compound 144] yielded a melting point of 197.8 °C. On human mGlu2 receptor, the IC50 was 4.79e-09 M and the Emax was 114%. Further, in the data set on rats, the 50% effective dose (ED50) is 1.01 mg/kg. For the same compound, the ED50 in the data set on Male Wiga Wistar rats amounted to 1.99 mg/kg.
Turning to `C[C@H]1CN(c2ccc(C(F)(F)F)c(F)c2)C(=O)c2c(C(=O)Nc3cccnc3)cnn21` [compound 21], on human mGlu2 receptor, the “GTPγS - hmGluR2 anGT pIC50” value turned out to be 8.72 and the “GTPγS - hmGluR2 anGT Emax” value was determined as 108%. For the same compound, the “ED50 MYD Test 2 (Induction of mydriasis)” value in the data set with Wiga rats is recorded as 7.9 mg/kg. In addition, the “ED50 SCOP JNJ-42153605 (Reversal of the effect of JNJ 42153605 on scopolamine-induced hyperlocomotion)” value in the data set on rats is 0.32 mg/kg.
With `C[C@H]1CN(c2ccc(Cl)cc2)C(=O)c2c(C(=O)Nc3cccnc3)cnn21` [compound 41], the melting point came to 180 °C. Further, at human mGlu2 receptor, the IC50 was 6.17e-09 M and the Emax was 106%. In addition, the ED50 with rats is greater than 0.63 mg/kg. In addition, the ED50 in the data set with Male Wiga Wistar rats amounted to 0.32 mg/kg.
As to `C[C@H]1CN(c2ccc(Cl)c(Cl)c2)C(=O)c2c(C(=O)Nc3cncc(F)c3)cnn21` [compound 27], on human mGlu2 receptor, the “GTPγS - hmGluR2 anGT pIC50” value is 9.09 and the “GTPγS - hmGluR2 anGT Emax” value was 108%. For the same compound, in the data set on Wiga rats, the “ED50 MYD Test 2 (Induction of mydriasis)” value is on record as greater than 10 mg/kg. Besides, the “ED50 SCOP JNJ-42153605 (Reversal of the effect of JNJ 42153605 on scopolamine-induced hyperlocomotion)” value in the data set with rats is 0.32 mg/kg.
Consider `Cc1cc(NC(=O)c2cnn3c2C(=O)N(c2ccc(C(F)(F)F)c(Cl)c2)C[C@@H]3C)ccn1` [compound 109], for which, on human mGlu2 receptor, the “GTPγS - hmGluR2 anGT pIC50” value worked out at 8.91 and the “GTPγS - hmGluR2 anGT Emax” value came out at 109%. The “ED50 MYD Test 2 (Induction of mydriasis)” value in the data set on Wiga rats stood at 32 mg/kg. For the same compound, the “ED50 SCOP JNJ-42153605 (Reversal of the effect of JNJ 42153605 on scopolamine-induced hyperlocomotion)” value in the data set on rats turned out to be 0.32 mg/kg.
Compound `COc1cncc(NC(=O)c2cnn3c2C(=O)N(c2ccc(C(F)(F)F)c(C)c2)C[C@@H]3C)c1` [compound 40] returned a melting point of 194.8 °C. Also, at human mGlu2 receptor, the IC50 was 2.14e-09 M and the maximal response (Emax) worked out at 111%. For the same compound, the ED50 in the data set on rats is greater than 0.63 mg/kg. Moreover, the ED50 in the data set on Male Wiga Wistar rats was greater than 0.63 mg/kg.
Compound `Cc1cncc(NC(=O)c2cnn3c2C(=O)N(c2ccc(C(F)(F)F)c(Cl)c2)C[C@@H]3C)c1C` [compound 126] came in with a melting point of 229.17 °C. Moreover, at human mGlu2 receptor, the IC50 was 1.17e-09 M and the Emax amounted to 108%. In addition, the ED50 in the data set with rats is greater than 0.63 mg/kg. Moreover, the ED50 in the data set with Male Wiga Wistar rats was greater than 0.63 mg/kg.
`C[C@H]1CN(c2ccc(Cl)c(Cl)c2)C(=O)c2c(C(=O)Nc3ccccn3)cnn21` [compound 25] had a melting point of 258.4 °C. Also, at human mGlu2 receptor, the IC50 is 3.09e-09 M and the Emax was 112%. In addition, in the data set on rats, the 50% effective dose (ED50) was greater than 2.5 mg/kg. Also, the ED50 with Male Wiga Wistar rats is greater than 10 mg/kg.
For the compound `C[C@H]1CN(c2ccc(C(F)(F)F)c(Cl)c2)C(=O)c2c(C(=O)Nc3ccccn3)cnn21` [compound 46], the melting point was found to be 223 °C. In addition, at human mGlu2 receptor, the IC50 is 2.75e-09 M and the Emax was found to be 113%. For the same compound, the ED50 in the data set with rats was greater than 2.5 mg/kg. Besides, the ED50 in the data set on Male Wiga Wistar rats came to 1.99 mg/kg.
